Data: patent US8609686B2, “Substituted azabicyclic compounds and the use thereof” (Bayer Intellectual Property GmbH, priority 2007, dated 2013)
pEC50: −log10 of the molar value.

What was measured:
Type in all cases: cell-based
adenosine A2a receptor = biological target: T1, adenosine A2a receptor (Homo sapiens, UniProt P29274); assay: Indirect determination of adenosine agonism by way of gene expression (cAMP-dependent luciferase reporter), A2a cells; conditions: stably transfected CHO cells; 50% of the maximum stimulation of luciferase
T1 construct: expressed in transfected cells; host or cells: CHO (Chinese Hamster Ovary)
T1 sequence (P29274 whole entry): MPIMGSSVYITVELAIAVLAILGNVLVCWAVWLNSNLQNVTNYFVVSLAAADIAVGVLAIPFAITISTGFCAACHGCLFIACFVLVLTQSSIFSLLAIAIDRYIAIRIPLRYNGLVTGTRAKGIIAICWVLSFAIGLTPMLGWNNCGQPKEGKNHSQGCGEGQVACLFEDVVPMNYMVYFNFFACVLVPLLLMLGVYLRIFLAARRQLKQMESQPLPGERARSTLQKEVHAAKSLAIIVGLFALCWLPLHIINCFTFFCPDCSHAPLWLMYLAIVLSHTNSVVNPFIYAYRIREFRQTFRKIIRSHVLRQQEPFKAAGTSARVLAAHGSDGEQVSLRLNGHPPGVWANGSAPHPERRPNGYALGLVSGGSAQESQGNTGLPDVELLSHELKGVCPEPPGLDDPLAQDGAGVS
Source text: (§1) B-1. Indirect determination of the adenosine agonism by way of gene expression Cells of the CHO (Chinese Hamster Ovary) permanent line are transfected stably with the cDNA for the adenosine receptor subtypes A1, A2a and A2b. The adenosine A1 receptors are coupled to the adenylate cyclase by way of Gi proteins, while the adenosine A2a and A2b receptors are coupled by way of Gs proteins. In correspondence with this, the formation of cAMP in the cell is inhibited or stimulated, respectively. After that, expression of the luciferase is modulated by way of a cAMP-dependent promoter. The luciferase test is optimized, with the aim of high sensitivity and reproducibility, low variance and good suitability for implementation on a robot system, by varying several test parameters, such as cell density, duration of the growth phase and the test incubation, forskolin concentration and medium composition. The following test protocol is used for pharmacologically characterizing cells and for the robot-assisted substance screening:
(§2) The stock cultures are grown, at 37° C. and under 5% CO2, in DMEM/F12 medium containing 10% FCS (fetal calf serum) and in each case split 1:10 after 2-3 days. Test cultures are seeded in 384-well plates with 2000 cells per well and grown at 37° C. for approx. 48 hours. The medium is then replaced with a physiological sodium chloride solution (130 mM sodium chloride, 5 mM potassium chloride, 2 mM calcium chloride, 20 mM HEPES, 1 mM magnesium chloride hexahydrate, 5 mM sodium bicarbonate, pH 7.4). The substances to be tested, which are dissolved in DMSO, are pipetted into the test cultures (maximum final concentration of DMSO in the test mixture: 0.5%) in a dilution series of from 5×10^−11M to 3×10^−6M (final concentration). 10 minutes later, forskolin is added to the A1 cells and all the cultures are subsequently incubated at 37° C. for four hours. After that, 35 μl of a solution which is composed of 50% lysis reagent (30 mM disodium hydrogenphosphate, 10% glycerol, 3% TritonX100, 25 mM TrisHCl, 2 mM dithiotreitol (DTT), pH 7.8) and 50% luciferase substrate solution (2.5 mM ATP, 0.5 mM luciferin, 0.1 mM coenzyme A, 10 mM tricine, 1.35 mM magnesium sulfate, 15 mM DTT, pH 7.8) are added to the test cultures, which are shaken for approx. 1 minute and the luciferase activity is measured using a camera system. The EC50 values are determined, i.e., the concentrations at which 50% of the luciferase response is inhibited in the case of the A1 cell, and, respectively, 50% of the maximum stimulation with the corresponding substance is achieved in the case of the A2b and A2a cells. […] Pharmacol., 357, 1-9 (1998)).
(§3) Table 1 below lists the EC50 values of representative working examples for the receptor stimulation on adenosine A1, A2a and A2b receptor subtypes: […]

adenosine A2b receptor = biological target: T2, adenosine A2b receptor (Homo sapiens, UniProt P29275); assay: Indirect determination of adenosine agonism by way of gene expression (cAMP-dependent luciferase reporter), A2b cells; conditions: stably transfected CHO cells; 50% of the maximum stimulation of luciferase
T2 construct: expressed in transfected cells; host or cells: CHO (Chinese Hamster Ovary)
T2 sequence (P29275 1-332): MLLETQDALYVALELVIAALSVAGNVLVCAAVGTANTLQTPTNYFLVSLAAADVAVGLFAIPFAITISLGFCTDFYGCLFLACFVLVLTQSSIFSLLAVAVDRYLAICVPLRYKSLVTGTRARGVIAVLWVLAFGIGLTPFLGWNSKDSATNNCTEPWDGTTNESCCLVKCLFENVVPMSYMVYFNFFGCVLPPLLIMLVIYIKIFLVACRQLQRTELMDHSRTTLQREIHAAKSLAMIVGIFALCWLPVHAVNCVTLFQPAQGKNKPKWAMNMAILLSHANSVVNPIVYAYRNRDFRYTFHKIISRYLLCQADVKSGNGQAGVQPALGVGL
Source text: as §1, §2, §3

adenosine A1 receptor = biological target: T3, adenosine A1 receptor (Homo sapiens, UniProt P30542); assay: Indirect determination of adenosine agonism by way of gene expression (cAMP-dependent luciferase reporter), A1 cells; conditions: stably transfected CHO cells; 1 μM forskolin; concentration at which 50% of the luciferase response is inhibited
T3 construct: expressed in transfected cells; host or cells: CHO (Chinese Hamster Ovary)
T3 sequence (P30542 1-326): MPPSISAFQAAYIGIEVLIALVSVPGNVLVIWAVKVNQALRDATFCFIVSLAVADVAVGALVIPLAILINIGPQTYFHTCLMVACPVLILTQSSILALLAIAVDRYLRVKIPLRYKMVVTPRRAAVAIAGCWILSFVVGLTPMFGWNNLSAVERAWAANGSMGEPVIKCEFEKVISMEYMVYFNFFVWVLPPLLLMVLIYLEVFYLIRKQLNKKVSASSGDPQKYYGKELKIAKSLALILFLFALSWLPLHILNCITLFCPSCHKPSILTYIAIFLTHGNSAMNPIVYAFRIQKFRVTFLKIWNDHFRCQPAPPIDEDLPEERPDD
Source text: as §1, §2, §3

SMILES	pEC50 (adenosine A2a receptor)	pEC50 (adenosine A2b receptor)	EC50 (adenosine A1 receptor) [nM]
COC(=O)c1c(N)c2c(-c3ccc(OCCO)cc3)c(C#N)c(SCc3csc(-c4ccc(Cl)cc4)n3)nc2n1C [Example 1, Methyl 3-amino-6-({[2-(4-chlorophenyl)-1,3-thiazol-4-yl]methyl}thio)-5-cyano-4-[4-(2-hydroxyethoxy)phenyl]-1-methyl-1H-pyrrolo[2,3-b]pyridine-2-carboxylate]	6.77	6.26	0.8
COC(=O)Cn1c(C(=O)OC)c(N)c2c(-c3ccc(OCCO)cc3)c(C#N)c(SCc3csc(-c4ccc(Cl)cc4)n3)nc21 [Example 2]	6.82	5.81	1.7
COC(=O)c1c(N)c2c(-c3ccccc3)c(C#N)c(SCc3csc(-c4ccc(Cl)cc4)n3)nc2n1C [Example 3]	< 5.52	< 5.52	5.3
COC(=O)c1c(N)c2c(-c3ccc(OCCO)cc3)c(C#N)c(SCc3cccc(C#N)c3)nc2n1C [Example 4]	7.14	6.49	3
COC(=O)c1c(N)c2c(-c3ccc(OCCO)cc3)c(C#N)c(SCc3ccc(OC)nc3)nc2n1C [Example 5]	6.70	6.00	1.5
Cn1c(C(N)=O)c(N)c2c(-c3ccc(OCCO)cc3)c(C#N)c(SCc3csc(-c4ccc(Cl)cc4)n3)nc21 [Example 6]	5.95	< 5.52	0.3
CNC(=O)c1c(N)c2c(-c3ccc(OCCO)cc3)c(C#N)c(SCc3csc(-c4ccc(Cl)cc4)n3)nc2n1C [Example 7]	6.46	6.18	5
COC(=O)c1c(N)c2c(-c3ccc(OC[C@@H](O)CO)cc3)c(C#N)c(SCc3coc(-c4ccc(Cl)cc4)n3)nc2n1C [Example 11]	6.22	< 5.52	14
COC(=O)c1c(N)c2c(-c3ccc(OC[C@@H](O)CO)cc3)c(C#N)c(SCc3csc(-c4ccc(Cl)cc4)n3)nc2n1C [Example 12]	5.80	< 5.52	11
COC(=O)c1c(N)c2c(-c3ccc(OCCO)cc3)c(C#N)c(SCc3cccc(C(N)=O)c3)nc2n1C [Example 15, Methyl 3-amino-6-[(3-carbamoylbenzyl)thio]-5-cyano-4-[4-(2-hydroxyethoxy)phenyl]-1-methyl-1H-pyrrolo[2,3-b]pyridine-2-carboxylate]	6.36	5.88	3.7
Cn1c(C(N)=O)c(N)c2c(-c3ccc(OCCO)cc3)c(C#N)c(SCc3cccc(C(N)=O)c3)nc21 [Example 16, 3-Amino-6-[(3-carbamoylbenzyl)thio]-5-cyano-4-[4-(2-hydroxyethoxy)phenyl]-1-methyl-1H-pyrrolo[2,3-b]pyridine-2-carboxamide]	6.48	6.12	4.9
COC(=O)c1[nH]c2nc(SCc3csc(-c4ccc(Cl)cc4)n3)c(C#N)c(-c3ccc(OCCO)cc3)c2c1N [Example 17, Methyl 3-amino-6-({[2-(4-chlorophenyl)-1,3-thiazol-4-yl]methyl}thio)-5-cyano-4-[4-(2-hydroxyethoxy)phenyl]-1H-pyrrolo[2,3-b]pyridine-2-carboxylate]	6.17	< 5.52	3.7
N#Cc1c(SCc2csc(-c3ccc(Cl)cc3)n2)nc2[nH]nc(N)c2c1-c1ccc(OCCO)cc1 [Example 21, 3-Amino-6-({[2-(4-chlorophenyl)-1,3-thiazol-4-yl]methyl}sulfanyl)-4-[4-(2-hydroxyethoxy)phenyl]-1H-pyrazolo[3,4-b]pyridine-5-carbonitrile]	< 5.52	< 5.52	10
